From patent publication US20050143354A1, “Association of an antithrombotic and aspirin” (priority 2002, published 2005) come the findings set out here.

This experiment relates to arterial thrombosis in the guinea-pig. Description: arterial thrombosis test in the guinea-pig (cyclic flow reductions after carotid artery lesion). The note with it: aspirin 2 mg/kg i.v. alone; not different from control animals. Format: in vivo. The text has this: This test is based on the model initially described by Roux et al. (Thromb Haemost 71: 252-256, 1994). The guinea-pigs are anaesthetised using ketamine+xylazine (90+12) mg.kg i.m.. The trachea is cannulated and spontaneous respiration by the animals maintained. The jugular vein is cannulated, allowing the intravenous administration of the compounds being tested. The carotid artery is isolated, and a Doppler probe is installed allowing the arterial blood flow to be measured. After stabilisation, a lesion to the artery wall is produced by means of a clip applied distally to the Doppler probe. Subsequent to that lesion, the blood flow decreases. When the flow reaches zero, the artery is lightly shaken, which allows the flow to be restored. The thrombosis process continues, leading again to the flow reducing and ceasing. The thrombotic phenomena accordingly result in cyclic flow reductions (CFR), which are observed over a period of 20 minutes. After that period, the animal is treated, or not, with compound (A), and the CFR are again observed for a period of 20 minutes. The experiments are carried out in control animals or in animals treated by the intravenous route with aspirin (2 mg/kg).
This study was carried out using the sodium salt of the (R) isomer of compound (A).

For the compound `CC(=O)Oc1ccccc1C(=O)O` [aspirin], the “cyclic flow reductions (CFR)” value is given as 8±1 CFR/20 min.
